Patent US7358064B2, “Kits for measuring cellular transmembrane potential changes” (Molecular Devices Corporation, priority 2001, dated 2008)

Columns and labels:
[1] = biological target: T1, purinergic P2X2 ligand-gated ion channel (Homo sapiens, UniProt Q9UBL9); test: ATP dose response in FLIPR membrane potential assay with DiSBAC1(3); assay type: cell-based; details: ATP dose response in P2X2 cells loaded with DiSBAC1(3); worded as 'should be approximately'
T1 construct: expressed in transfected cells; host or cells: 1321N1 astrocytoma cells
T1 sequence (Q9UBL9 1-471): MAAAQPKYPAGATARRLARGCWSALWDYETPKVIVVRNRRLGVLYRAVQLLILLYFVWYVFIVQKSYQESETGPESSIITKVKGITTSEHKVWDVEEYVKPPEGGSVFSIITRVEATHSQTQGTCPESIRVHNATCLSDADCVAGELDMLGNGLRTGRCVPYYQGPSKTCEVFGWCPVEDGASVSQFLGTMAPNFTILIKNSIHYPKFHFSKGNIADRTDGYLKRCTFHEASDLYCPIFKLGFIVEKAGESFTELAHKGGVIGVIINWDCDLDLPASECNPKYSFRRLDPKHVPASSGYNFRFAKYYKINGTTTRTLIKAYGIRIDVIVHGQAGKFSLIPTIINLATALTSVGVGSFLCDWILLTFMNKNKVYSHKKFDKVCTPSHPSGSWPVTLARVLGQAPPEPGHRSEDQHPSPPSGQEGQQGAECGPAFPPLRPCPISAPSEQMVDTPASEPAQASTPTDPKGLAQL

[2] = Octanol/water partition of DiBAC and DiSBAC dyes, read by absorption spectra; assay type: physicochemical; details: for Absorbance in Octanol / Absorbance in Water: 3 mM DMSO stock partitioned in 1:1 octanol/water; for Absorbance in Octanol: octanol layer; for Absorbance in Water: water layer; for Absorbance in Water/Absorbance in Octanol: 1:1 octanol/water partition; for Relative Values: water/octanol ratio relative to DiBAC1(3) (DiBAC dyes) or DiSBAC1(3) (DiSBAC dyes)
Protocol: (§1) DiSBAC1(3), DiSBAC2(3), DiSBAC3(3), DiSBAC4(3), DiBAC1(3) and DiBAC4(3) are dissolved in DMSO (3 mM). The DMSO stock solutions are respectively partitioned in 1:1 octanol/water mixture. The concentrations of the oxonol dyes in octanol and water layers are determined by absorption spectra.

[3] = assay type: physicochemical; details: compared with the other oxonol dyes
Protocol: as §1

P2X2 cells = test: FLIPR membrane potential assay, fluorescence response of dyes in P2X2 cells; assay type: cell-based; details: for Fluorescence enhancement by 10 μM ATP stimulation (in folds) / Response speed: P2X2 cells, FLIPR; for Response speed: ATP stimulation; for Response to membrane potential change (speed, in words): compared with other DiBAC/DiSBAC dyes; for Signal strength: compared with other members of the DiBAC and DiSBAC family, FLIPR and other fluorescence devices
Excerpt: This specific example illustrates how to use DiSBA1(3) in P2X2 cells in combination with the FLIPR™ fluorescent imaging plate reader sold by Molecular Devices Corp. of Sunnyvale, Calif. P2X2 cells are 1321 N1 astrocytoma cells transfected to overexpress the purinergic P2X2 ligand-gated ion channel. P2X2 belongs to a class of purinergic ion channels that pass calcium and sodium in response to purine, including adenosine 5′-triphosphate (ATP). P2X2 cells are propagated and maintained in DME (high glucose), 10% FCS, 1× Pen/Strep and 2 mM L-glutamine. Doubling time is approximately 36 hours. P2X2 cells should be split at a 1 to 2 ratio upon confluence. The cells should be carried for no more than 20 passages. When approaching this limit, a new frozen vial of cells should be resurrected. Following is a typical kit procedure: • 1. Plate 40,000 P2X2 cells in 100 μL per well for 96 well plates or 10,000 P2X2 cells in 25 μL per well for 384 well plates for overnight.
2. Prepare 1× Loading Buffer. • 2.1 To prepare the 1× Assay Buffer, pipette 10 mL of 10× Reagent Buffer (1× Hanks' Balance Saline Solution+20 mM HPEPES, pH 7.40) and dilute in 90 mL of distilled water. Adjust pH to 7.4 using 1.0 N NaOH and/or 1.0 N HCl. • 2.2 To prepare 10 mM stock solution of DiSBAC1(3), dissolve 3.8 mg DiSBAC1(3) in 1 mL DMSO • 2.3 To prepare 10% pluronic acid, dissolve 400 mg pluronic acid in 4 mL water. Heat to 37° C. to complete dissolution. • 2.4 To prepare 1× Loading Buffer, add 30 μL of stock DiSBAC1(3), 8 μL 10% pluronic acid, and 20.0 mg DB71 in the 1× FLIPR assay buffer. • 3. Load Cells with 1× Loading Buffer • 4. Remove cell plates from the incubator • 5. Add 100 μL of 1× Loading Buffer per well of 96-well plates or 25 μL per well of 384-well plates. • 6. Incubate plates at 37° C. for 30 minutes. • 7. Run the FLIPR Membrane Potential Assay • 7.1 Make 5× compound plate prior to running the FLIPR assay. Dissolve 27.5 mg of ATP (Sigma Cat# A3377) in 1 mL of sterile water to make a 50 mM stock solution. […] Choose p2x2.fcf for experimental setup in the FLIPR software. Set up the appropriate experiment parameters. • 7.3 After incubation, transfer the plates directly to FLIPR and begin the Membrane Potential Assay. • 8. Run FLIPR and perform data analysis.
DiSBAC1(3), DiSBAC2(3), DiSBAC3(3), DiSBAC4(3), DiBAC1(3) and DiBAC4(3) are dissolved in DMSO (1 mM). The stock solutions are respectively used to assay membrane potential changes in the P2X2 cells in combination with FLIPR™ as described in Example 2.

PC12 = test: DiSBAC1(3) as fluorescent indicator of transmembrane potential depolarization of PC12 cells; assay type: cell-based, rat; details: 75 mM potassium gluconate, 2.5 μM dye, 200 μM Direct Blue 71
[4] = system: voltage-gated sodium channels; assay type: cell-based, rat

Nc1ncnc2c1ncn2[C@@H]1O[C@H](COP(=O)(O)OP(=O)(O)OP(=O)(O)O)[C@@H](O)[C@H]1O [ATP, adenosine 5′-triphosphate]
EC50 [1]: 10 to 100 nM

CN1C(=O)C(=CC=Cc2c(O)n(C)c(=O)n(C)c2=O)C(=O)N(C)C1=O [DiBAC1(3)]
Absorbance in Octanol [2]: 0.3104
Absorbance in Water [2]: 1.297
Absorbance in Water/Absorbance in Octanol [2]: 4.179
Relative Values [2]: 1
Water solubility [3]: greater water solubility
Fluorescence enhancement by 10 μM ATP stimulation (in folds) (P2X2 cells): 3.7 folds
Response speed (P2X2 cells): fast
Response to membrane potential change (speed, in words) (P2X2 cells): much faster response
Response to membrane potential change (speed, in words) (P2X2 cells; listed as DiBAC1 (3)): faster response
Signal strength (P2X2 cells): stronger signal

CCCCN1C(=O)C(=CC=Cc2c(O)n(CCCC)c(=O)n(CCCC)c2=O)C(=O)N(CCCC)C1=O [DiBAC4(3)]
Absorbance in Octanol [2]: 2.854
Absorbance in Water [2]: 0.002501
Absorbance in Water/Absorbance in Octanol [2]: 0.00088
Relative Values [2]: 0.00021
Fluorescence enhancement by 10 μM ATP stimulation (in folds) (P2X2 cells): 3.3 folds
Response speed (P2X2 cells): slow

CN1C(=O)C(=CC=Cc2c(O)n(C)c(=S)n(C)c2=O)C(=O)N(C)C1=S [DiSBAC1(3), Bis-(1,3-dimethylthiobarbituric acid)trimethine oxonol]
Fluorescence change on cell depolarization (PC12): increased DiSBAC1(3) fluorescence
Absorbance in Octanol [2]: 0.9126
Absorbance in Water [2]: 0.06147
Absorbance in Water/Absorbance in Octanol [2]: 0.0674
Hydrophilicity ([2]; compared with the other oxonol dyes): much more hydrophilic
Relative Values [2]: 1
Fluorescence enhancement by 10 μM ATP stimulation (in folds) (P2X2 cells): 108.5 folds
Response speed (P2X2 cells): fast
Response to membrane potential change (speed, in words) (P2X2 cells): faster response
Signal strength (P2X2 cells): stronger signal
Sensitivity to membrane potential change (P2X2 cells; compared with the rest of the DiSBACs): much more sensitive

CCN1C(=O)C(=CC=Cc2c(O)n(CC)c(=S)n(CC)c2=O)C(=O)N(CC)C1=S [DiSBAC2(3)]
Absorbance in Octanol [2]: 2.187
Absorbance in Water [2]: 0.01143
Absorbance in Water/Absorbance in Octanol [2]: 0.0052
Relative Values [2]: 0.078
Fluorescence enhancement by 10 μM ATP stimulation (in folds) (P2X2 cells): 38.6 folds
Response speed (P2X2 cells): moderate

CCCN1C(=O)C(=CC=Cc2c(O)n(CCC)c(=S)n(CCC)c2=O)C(=O)N(CCC)C1=S [DiSBAC3(3)]
Absorbance in Octanol [2]: 4.331
Absorbance in Water [2]: 0.002256
Absorbance in Water/Absorbance in Octanol [2]: 0.0005
Relative Values [2]: 0.0077
Fluorescence enhancement by 10 μM ATP stimulation (in folds) (P2X2 cells): 14.5 folds
Response speed (P2X2 cells): slow

CCCCN1C(=O)C(=CC=Cc2c(O)n(CCCC)c(=S)n(CCCC)c2=O)C(=O)N(CCCC)C1=S [DiSBAC4(3)]
Absorbance in Octanol [2]: 3.226
Absorbance in Water [2]: 0.003318
Absorbance in Water/Absorbance in Octanol [2]: <0.0010
Relative Values [2]: <0.0077
Fluorescence enhancement by 10 μM ATP stimulation (in folds) (P2X2 cells): 2.3 folds
Response speed (P2X2 cells): slow

NC1=N[C@H](O)[C@H]2[C@H]3O[C@]4(O)O[C@@H]([C@@H](O)[C@@]2(N1)[C@@H]4O)[C@]3(O)CO [TTX, tetrodotoxin]
Change in membrane potential (fluorescence increase) upon potassium addition [4]: smaller increase in fluorescence
